Test results from BindingDB's records for doi:10.7270/Q2TX3CSC (Vanderbilt Screening Center for GPCRs, Ion Channels and …, 2009).

These compounds were tested against T1, Solute carrier family 12 member 5 (Homo sapiens, UniProt Q9H2X9) (assay: KCC2 modulator potency by thallium flux, dose response, cell-based, HEK293 KCC2, FluoZin-2 fluorescence (AID 1736)). Conditions: not given.
T1 sequence (Q9H2X9 whole entry): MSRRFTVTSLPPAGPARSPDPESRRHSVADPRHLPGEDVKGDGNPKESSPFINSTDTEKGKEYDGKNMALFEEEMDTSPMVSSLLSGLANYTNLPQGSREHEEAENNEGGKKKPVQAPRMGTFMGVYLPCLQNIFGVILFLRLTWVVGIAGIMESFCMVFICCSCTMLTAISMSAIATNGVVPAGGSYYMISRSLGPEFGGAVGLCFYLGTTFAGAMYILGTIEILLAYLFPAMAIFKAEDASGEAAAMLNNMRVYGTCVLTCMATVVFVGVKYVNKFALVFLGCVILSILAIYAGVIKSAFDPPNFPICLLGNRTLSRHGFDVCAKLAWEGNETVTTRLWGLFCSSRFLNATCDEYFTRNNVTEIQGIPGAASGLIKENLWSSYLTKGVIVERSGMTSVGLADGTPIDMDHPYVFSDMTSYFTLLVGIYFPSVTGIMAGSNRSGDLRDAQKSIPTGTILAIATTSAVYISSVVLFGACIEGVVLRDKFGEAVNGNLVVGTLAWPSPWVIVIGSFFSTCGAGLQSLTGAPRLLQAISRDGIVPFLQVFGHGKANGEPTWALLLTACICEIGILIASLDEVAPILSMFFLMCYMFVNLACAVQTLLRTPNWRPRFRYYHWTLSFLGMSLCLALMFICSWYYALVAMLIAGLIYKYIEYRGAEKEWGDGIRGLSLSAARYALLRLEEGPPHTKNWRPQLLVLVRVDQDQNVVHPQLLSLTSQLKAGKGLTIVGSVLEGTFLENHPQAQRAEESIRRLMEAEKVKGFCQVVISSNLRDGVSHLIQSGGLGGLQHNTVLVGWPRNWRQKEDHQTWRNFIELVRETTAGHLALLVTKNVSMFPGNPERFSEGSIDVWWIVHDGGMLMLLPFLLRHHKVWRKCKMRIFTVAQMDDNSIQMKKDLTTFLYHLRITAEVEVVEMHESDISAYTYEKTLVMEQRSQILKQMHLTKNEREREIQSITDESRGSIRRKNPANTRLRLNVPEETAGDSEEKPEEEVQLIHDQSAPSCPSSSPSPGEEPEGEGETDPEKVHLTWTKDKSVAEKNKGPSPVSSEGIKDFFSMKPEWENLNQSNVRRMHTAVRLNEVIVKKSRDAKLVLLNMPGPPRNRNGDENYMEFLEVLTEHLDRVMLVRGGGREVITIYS

| SMILES | EC50 [µM] |
| --- | --- |
| NC(=O)COc1ccccc1/C=C1/SC(=O)N(CC(=O)N2CCc3ccccc3C2)C1=O [2-[2-({3-[2-(3,4-dihydro-2(1H)-isoquinolinyl)-2-oxoethyl]-2,4-dioxo-1,3-thiazolidin-5-ylidene}methyl)phenoxy]acetamide] | 32 |
| Cc1ccc(-c2noc(CN3CCN(Cc4ccccc4)CC3)n2)cc1 [1-benzyl-4-{[3-(4-methylphenyl)-1,2,4-oxadiazol-5-yl]methyl}piperazine] | 6.64 |
| O=C(Cn1cnc2c(nnn2Cc2ccc(F)cc2)c1=O)NCc1ccc2c(c1)OCO2 [2-[3-(4-fluorobenzyl)-7-keto-triazolo[4,5-d]pyrimidin-6-yl]-N-piperonyl-acetamide] | 1.69 |
| CN(CC(=O)N1CCN(Cc2ccccc2)CC1)S(=O)(=O)c1cccc2nsnc12 [MLS000674627] | 0.58 |
| S=C(NCCc1ccccc1)NN=Cc1cccc(Cl)c1Cl [1-[(2,3-dichlorobenzylidene)amino]-3-phenethyl-thiourea] | 47.6 |
| COc1ccc(-c2cc(CCCC(=O)NCCc3ccccc3)no2)cc1 [4-[5-(4-methoxyphenyl)-1,2-oxazol-3-yl]-N-(2-phenylethyl)butanamide] | 0.725 |
| CC12CC3(C)CC(C)(C1)CC(C(=O)NC(=S)N1CCCC1)(C2)C3 [3,5,7-trimethyl-N-pyrrolidin-1-ylcarbothioyl-adamantane-1-carboxamide] | 1.14 |
| N#Cc1nc(Cc2cccc3ccccc23)oc1N1CCOCC1 [5-(4-morpholinyl)-2-(1-naphthalenylmethyl)-4-oxazolecarbonitrile] | 1.32 |
| CN(Cc1ccccc1)c1nc2nonc2nc1N1CCCC(CN2CCCC2=O)C1 (stereo not given) [1-[(1-{6-[benzyl(methyl)amino][1,2,5]oxadiazolo[3,4-b]pyrazin-5-yl}piperidin-3-yl)methyl]pyrrolidin-2-one] | 2.43 |
| Cc1c(C(=O)NCCSCc2ccc(F)cc2)cnn1-c1ccc(Cl)cc1 [1-(4-chlorophenyl)-N-[2-[(4-fluorobenzyl)thio]ethyl]-5-methyl-pyrazole-4-carboxamide] | 6.18 |
| Cc1ccc(C2=CSC3=NNC4(CCCCC4)NN23)cc1 [SMR000306481] | 2.52 |
| Cc1ccc(C)c(NC(=O)CSc2nnc([C@@H](N)Cc3ccccc3)o2)c1 [2-[5-((S)-1-Amino-2-phenyl-ethyl)-[1,3,4]oxadiazol-2-ylsulfanyl]-N-(2,5-dimethyl-phenyl)-acetamide] | 5.54 |
| Cc1cccc(OCCc2nnc(N)s2)c1C [5-[2-(2,3-Dimethyl-phenoxy)-ethyl]-[1,3,4]thiadiazol-2-ylamine] | 37.5 |
| CCCC1=NN2C(=N)/C(=C\c3cc(C)n(-c4cc(C)cc(C)c4)c3C)C(=O)N=C2S1 [MLS000588586] | 6.75 |
| O=C(O)c1cc(-c2ccc(F)cc2F)ccc1O | 25.7 |
| CNC(=O)/C(=C\C=C\c1ccccc1)NC(=O)c1ccc([N+](=O)[O-])cc1 [MLS000570424] | 2.8 |
| Sc1nnc(CCc2ccc(Cl)cc2)o1 [5-[2-(4-chlorophenyl)ethyl]-1,3,4-oxadiazole-2-thiol] | 0.991 |
| C=C(C)Cn1c(N2CCC(Cc3ccccc3)CC2)nc2c1c(=O)[nH]c(=O)n2C [3-methyl-7-(2-methylprop-2-enyl)-8-[4-(phenylmethyl)-1-piperidinyl]purine-2,6-dione] | 20.4 |
| Cc1ccc(C(=O)Nc2nc(=O)n(C(=O)c3ccccc3Cl)s2)cc1 [MLS000540480] | 3.72 |
| COc1cc(OC)c(C2=NOC(C(=O)N3CCc4ccccc4C3)C2)cc1Cl (stereo not given) [2-{[3-(5-chloro-2,4-dimethoxyphenyl)-4,5-dihydro-5-isoxazolyl]carbonyl}-1,2,3,4-tetrahydroisoquinoline] | 6.59 |
| COCCNS(=O)(=O)c1ccc(-c2ccc(Cl)cc2)cc1 [4'-chloro-N-(2-methoxyethyl)-4-biphenylsulfonamide] | 6 |

| SMILES | EC50 [µM] |
| --- | --- |
| O=C(CSc1nnc(-c2c[nH]c3ccccc23)o1)N1CCCCC1 [SMR000003748] | 1.81 |
| CC1Cc2ccccc2N1C(=O)/C=C/c1cccc(F)c1 (stereo not given) [(E)-3-(3-fluorophenyl)-1-(2-methyl-2,3-dihydroindol-1-yl)-2-propen-1-one] | 129 |
| O=S(=O)(NC1CCCC1)c1cccc(S(=O)(=O)N2CCC(n3nnc4ccccc43)CC2)c1 [3-(4-Benzotriazol-1-yl-piperidine-1-sulfonyl)-N-cyclopentyl-benzenesulfonamide] | 4.9 |
| Sc1nnc(Cc2cccc3ccccc23)o1 [5-(1-naphthalenylmethyl)-3H-1,3,4-oxadiazole-2-thione] | 0.304 |
| Cc1ccc(C(=O)CC=Nc2ccccc2C(N)=O)cc1 [2-[[(E)-3-(4-methylphenyl)-3-oxidanylidene-prop-1-enyl]amino]benzamide] | 3.36 |
| N#Cc1nc(-c2cccs2)oc1N1CCN(Cc2ccccc2)CC1 [5-(4-benzyl-1-piperazinyl)-2-(2-thienyl)-1,3-oxazole-4-carbonitrile] | 3.58 |
| O=C(c1ccc(N2CCCCCC2)c([N+](=O)[O-])c1)N1CCc2ccccc21 [1-(4-azepan-1-yl-3-nitrobenzoyl)indoline] | 0.373 |
| Sc1nnc(C2(c3ccccc3)CCCC2)o1 [5-(1-phenylcyclopentyl)-3H-1,3,4-oxadiazole-2-thione] | 3.3 |
| O=c1[nH]c2ccc(S(=O)(=O)N3CCN(c4ccccc4F)CC3)cc2s1 [6-{[4-(2-fluorophenyl)piperazin-1-yl]sulfonyl}-1,3-benzothiazol-2(3H)-one] | 5.64 |
| CCOC(=O)c1cc2c(ccn2-c2ccc(F)cc2)n1CC(=O)NC(C)(C)C [4-[2-(tert-butylamino)-2-keto-ethyl]-1-(4-fluorophenyl)pyrrolo[3,2-b]pyrrole-5-carboxylic acid ethyl ester] | 51100 |
| NC(=S)NN=C1C(=O)N(Cc2ccc(F)cc2)c2ccccc21 [1-[(Z)-[1-[(4-fluorophenyl)methyl]-2-oxidanylidene-indol-3-ylidene]amino]thiourea] | 144 |
| Cc1ccc(/C=C2/Sc3ccccc3N(CC(=O)NCCCOC(C)C)C2=O)cc1 [2-[(2E)-2-[(4-methylphenyl)methylidene]-3-oxidanylidene-1,4-benzothiazin-4-yl]-N-(3-propan-2-yloxypropyl)ethanamide] | 964 |
| O=C(NCc1nc(-c2ccccc2)cs1)c1ccccc1 [MLS000661971] | 6.49 |
| Cc1ccc2[nH]c(=O)c(CN(CCc3ccccc3)Cc3nnnn3CC3CCCO3)cc2c1 (stereo not given) [SMR000003177] | 4.26 |
| CCN(CC)c1ccc2c(C)c(-c3ccc(N)cc3)c(=O)oc2c1 [3-(4-aminophenyl)-7-(diethylamino)-4-methyl-1-benzopyran-2-one] | 0.986 |
| CSCCC(=O)N1CCCC(CNC(=O)c2ccc(-c3ccccc3)cc2)C1 (stereo not given) [MLS000733867] | 7.78 |
| CC(=O)NCC1CCCN(c2nc3nonc3nc2N(C)Cc2ccccc2)C1 (stereo not given) [MLS000731683] | 2.68 |
| Fc1cccc(F)c1C=NNC(=S)Nc1cccnc1 [1-[(2,6-difluorobenzylidene)amino]-3-(3-pyridyl)thiourea] | 6.93 |
| O=C(NCCc1c[nH]c2ccccc12)c1cc(S(=O)(=O)N2CCCCC2)ccc1N1CCOCC1 [N-[2-(1H-indol-3-yl)ethyl]-2-morpholin-4-yl-5-piperidin-1-ylsulfonylbenzamide] | 208 |
| CCC(c1nnc(SCc2nc3ccccc3s2)n1Cc1ccccc1)N(C)C (stereo not given) [1-[5-(1,3-benzothiazol-2-ylmethylsulfanyl)-4-(phenylmethyl)-1,2,4-triazol-3-yl]-N,N-dimethyl-propan-1-amine] | 14.7 |
| COc1cccc(Nc2nnc(S)s2)c1 [5-(3-methoxyanilino)-3H-1,3,4-thiadiazole-2-thione] | 3.05 |

Same assay, conditions: inactive by the depositor's call

| SMILES | EC50 [µM] |
| --- | --- |
| COc1ccc(-c2nc(C[S+]([O-])CC(=O)N3CCc4ccccc4C3)c(C)o2)cc1 (stereo not given) [1-(3,4-dihydro-1H-isoquinolin-2-yl)-2-[[2-(4-methoxyphenyl)-5-methyl-1,3-oxazol-4-yl]methylsulfinyl]ethanone] | 1410 |
| Cc1nc(CC(=O)Nc2nc(-c3ccccc3)cs2)cs1 [2-(2-methyl-1,3-thiazol-4-yl)-N-(4-phenyl-1,3-thiazol-2-yl)acetamide] | 1.81 |
| COC(=O)[C@@H](NC(=O)O[C@@H]1C(=O)c2cc(Br)ccc2O[C@H]1c1cccc(OC)c1)C(C)C [(2S)-2-[[(2S,3S)-6-bromo-4-keto-2-(3-methoxyphenyl)chroman-3-yl]oxycarbonylamino]-3-methyl-butyric acid methyl ester] | 33.7 |
